Measurements taken from US20110257211A1, “Small-Molecule Choline Kinase Inhibitors as Anti-Cancer Therapeutics” (ADVANCED CANCER THERAPEUTICS, LLC, priority 2010, published 2011).

What was measured:
[1] = Microsomal stability in human liver microsomes; type: in vitro ADME
Description: Microsomal stability in vitro in different biologic media and species is ascertained when screening compounds to evaluate the rate at which a compound undergoes metabolism.

NCI-H82 = test: Inhibition of cancer cell proliferation, Alamar Blue assay (NCI-H82); type: cell-based; details: Homo sapiens, Table 2A, Alamar Blue, 72 hours exposure, read-out: IC50s NCI-H82
Description: (§1) The ability of the compounds described herein to kill or inhibit the proliferation of cancer cells was measured using the Alamar Blue assay using a 72 hours exposure. Results for different cancer cell lines are shown in, the Table 2 below (hematopoietic cell lines U937 and K562; MDA-MB-231 a breast cancer cell line; and NCI-H82 and Calu-6, two lung cancer cell lines): […]

Calu-6 = test: Inhibition of cancer cell proliferation, Alamar Blue assay (Calu-6); type: cell-based; details: Homo sapiens, Table 2A, Alamar Blue, 72 hours exposure, read-out: IC50s Calu-6
Description: as §1

K562 = test: Inhibition of cancer cell proliferation, Alamar Blue assay (K562); type: cell-based; details: Homo sapiens, Table 2A, Alamar Blue, 72 hours exposure, read-out: IC50s K562
Description: as §1

MDA-MB-231 = test: Inhibition of cancer cell proliferation, Alamar Blue assay (MDA-MB-231); type: cell-based; details: Homo sapiens, Table 2A, Alamar Blue, 72 hours exposure, read-out: IC50s MDA-MB231
Description: as §1

U937 = test: Inhibition of cancer cell proliferation, Alamar Blue assay (U937); type: cell-based; details: Homo sapiens, U-937; Table 2A; Alamar Blue, 72 hours exposure; read-out: IC50s U937
Description: as §1

[2] = Pharmacokinetics in Balbc mice; type: in vivo; details: IV, Balbc male mice, 5 mg/kg
Description: The pharmacokinetic parameters for several compounds listed above were determined in mice following IV (intravenous) or IP (intraperitoneal) administration. Briefly, six Balbc male mice 7 to 8 weeks old were used for each study. A dose of 5 mg/kg or 10 mg/kg was administered using a 5% DMSO/90% Captisol (20% in water) solution for ACT-CK-050 or FFF for ACT-CK-154. Blood samples were collected at different intervals. Plasma samples were extracted and analyzed using an LC-MS/MS method. Results are represented in FIGS. 1 and 2.

SMILES | % Metabolized (mean) [1] | IC50 (K562) | IC50 (MDA-MB-231) | other results
CCOc1ccc(-c2nnc(SCC(=O)Nc3nc(C)cc(C)n3)[nH]2)cc1 [ACT-CK-148, N-(4,6-Dimethyl-pyrimidin-2-yl)-2-[5-(4-ethoxy-phenyl)-4H-[1,2,4]triazol-3-ylsulfanyl]-acetamide] | 54% | 0.72 µM | 29 µM | IC50 (NCI-H82): 8.1 µM; IC50 (Calu-6): 0.47 µM; IC50 (U937): 0.5 µM
CCOc1ccc(-c2nnc(SCC(=O)Nc3cc(C)cc(C)c3)[nH]2)cc1C [ACT-CK-142, N-(3,5-Dimethyl-phenyl)-2-[5-(4-ethoxy-3-methyl-phenyl)-4H-[1,2,4]triazol-3-ylsulfanyl]-acetamide] | 99% | 0.12 µM | 50 µM | IC50 (Calu-6): 0.09 µM; IC50 (U937): 0.035 µM
CCOc1ccc(-c2nnc(SCC(=O)Nc3ccc(C)cc3C)[nH]2)cc1 [ACT-CK-097, N-(2,4-Dimethyl-phenyl)-2-[5-(4-ethoxy-phenyl)-4H-[1,2,4]triazol-3-ylsulfanyl]-acetamide] | – | 3.78 µM | 12 µM | –
CCOc1ccc(-c2nnc(SCC(=O)Nc3ccc(OC)cc3C)[nH]2)cc1 [ACT-CK-087, 2-[5-(4-Ethoxy-phenyl)-4H-[1,2,4]triazol-3-ylsulfanyl]-N-(4-methoxy-2-methyl-phenyl)-acetamide] | – | 8.86 µM | 10.6 µM | –
CCCOc1ccc(-c2nnc(SCC(=O)Nc3cc(OC)cc(OC)c3)[nH]2)cc1 [ACT-CK-119, N-(3,5-Dimethoxy-phenyl)-2-[5-(4-propoxy-phenyl)-4H-[1,2,4]triazol-3-ylsulfanyl]-acetamide] | – | 28 µM | 11 µM | –
COc1ccc(-c2nnc(SCC(=O)Nc3cc(C)ccc3F)[nH]2)cc1 [ACT-CK-085, N-(2-Fluoro-5-methyl-phenyl)-2-[5-(4-methoxy-phenyl)-4H-[1,2,4]triazol-3-ylsulfanyl]-acetamide] | – | 4.4 µM | 16.3 µM | –
CCOc1ccc(-c2nnc(SCC(=O)Nc3cc(C)cc(C)n3)[nH]2)cc1 [ACT-CK-147, N-(4,6-Dimethyl-pyridin-2-yl)-2-[5-(4-ethoxy-phenyl)-4H-[1,2,4]triazol-3-ylsulfanyl]-acetamide] | 91% | 0.97 µM | 53 µM | IC50 (Calu-6): 0.74 µM; IC50 (U937): 0.63 µM
CCCOc1ccc(-c2nnc(SCC(=O)Nc3cc(C)cc(C)c3)[nH]2)cc1 [ACT-CK-118, N-(3,5-Dimethyl-phenyl)-2-[5-(4-propoxy-phenyl)-4H-[1,2,4]triazol-3-ylsulfanyl]-acetamide] | – | 1.4 µM | 5.6 µM | –
Cc1cc(C)cc(NC(=O)CSc2nnc(-c3ccc(OCCO)cc3)[nH]2)c1 [ACT-CK-155, N-(3,5-Dimethyl-phenyl)-2-{5-[4-(2-hydroxy-ethoxy)-phenyl]-4H-[1,2,4]triazol-3-ylsulfanyl}-acetamide] | 69% | – | – | –
COc1ccc(-c2nnc(SCC(=O)Nc3ccc(C)cc3C)[nH]2)cc1 [ACT-CK-096] | – | 34 µM | 149 µM | –
CCOc1ccc(-c2nnc(SCC(=O)Nc3cc(C)cc(C)c3)[nH]2)cn1 [ACT-CK-143, N-(3,5-Dimethyl-phenyl)-2-[5-(6-ethoxy-pyridin-3-yl)-4H-[1,2,4]triazol-3-ylsulfanyl]-acetamide] | 34% | – | – | –
Cc1cc(C)cc(NC(=O)CSc2nnc(-c3cc4ccccc4[nH]3)[nH]2)c1 [ACT-CK-124, N-(3,5-Dimethyl-phenyl)-2-[5-(1H-indol-2-yl)-4H-[1,2,4]triazol-3-ylsulfanyl]-acetamide] | – | 23 µM | 16 µM | –
CCOc1ccc(-c2nnc(SCC(=O)Nc3cc(C(F)(F)F)cc(C(F)(F)F)c3)[nH]2)cc1 [ACT-CK-152, N-(3,5-Bis-trifluoromethyl-phenyl)-2-[5-(4-ethoxy-phenyl)-4H-[1,2,4]triazol-3-ylsulfanyl]-acetamide] | 47% | – | – | –
COc1ccc(-c2nnc(SCC(=O)Nc3cccc(C)c3C)[nH]2)cc1 [ACT-CK-070, N-(2,3-Dimethyl-phenyl)-2-[5-(4-methoxy-phenyl)-4H-[1,2,4]triazol-3-ylsulfanyl]-acetamide] | – | 32.1 µM | 68.2 µM | –
CCOc1ccc(-c2nnc(SCC(=O)Nc3cccc(C)c3)[nH]2)cc1 [ACT-CK-156, 2-[5-(4-Ethoxy-phenyl)-4H-[1,2,4]triazol-3-ylsulfanyl]-N-m-tolyl-acetamide] | – | 3.27 µM | 7 µM | IC50 (NCI-H82): 1.7 µM; IC50 (Calu-6): 1.7 µM; IC50 (U937): 1.1 µM
CCOc1ccc(-c2nnc(SCC(=O)Nc3cccc(C)c3C)[nH]2)cc1 [ACT-CK-076, N-(2,3-Dimethyl-phenyl)-2-[5-(4-ethoxy-phenyl)-4H-[1,2,4]triazol-3-ylsulfanyl]-acetamide] | – | 14.6 µM | 21.2 µM | –

Continued, in another order:

% Metabolized (mean) [1] | IC50 (K562) | IC50 (MDA-MB-231) | SMILES | other results
– | 28.1 µM | > 100 µM | COc1ccc(-c2nnc(SCC(=O)Nc3c(F)cccc3F)[nH]2)cc1 [ACT-CK-061, N-(2,6-Difluoro-phenyl)-2-[5-(4-methoxy-phenyl)-4H-[1,2,4]triazol-3-ylsulfanyl]-acetamide] | –
– | 43 µM | 9 µM | CCCOc1ccc(-c2nnc(SCC(=O)Nc3cc(C)ccc3F)[nH]2)cc1 [ACT-CK-120, N-(2-Fluoro-5-methyl-phenyl)-2-[5-(4-propoxy-phenyl)-4H-[1,2,4]triazol-3-ylsulfanyl]-acetamide] | –
– | 0.81 µM | 40.2 µM | CCOc1ccc(-c2nnc(SCC(=O)Nc3cc(C)ccc3F)[nH]2)cc1 [ACT-CK-071, 2-[5-(4-Ethoxy-phenyl)-4H-[1,2,4]triazol-3-ylsulfanyl]-N-(2-fluoro-5-methyl-phenyl)-acetamide] | –
91% | – | – | CCOc1ccc(-c2nnc(SCC(=O)Nc3cc(C)nc(C)c3)[nH]2)cc1 [ACT-CK-151, N-(2,6-Dimethyl-pyridin-4-yl)-2-[5-(4-ethoxy-phenyl)-4H-[1,2,4]triazol-3-ylsulfanyl]-acetamide] | –
– | 39.5 µM | 70.6 µM | CCOc1ccc(-c2nnc(SCC(=O)Nc3ccc(F)cc3F)[nH]2)cc1 [ACT-CK-064, N-(2,4-Difluoro-phenyl)-2-[5-(4-ethoxy-phenyl)-4H-[1,2,4]triazol-3-ylsulfanyl]-acetamide] | –
– | 1.6 µM | 19.2 µM | CCOc1ccc(-c2nnc(SCC(=O)Nc3cc(F)ccc3C)[nH]2)cc1 [ACT-CK-067, 2-[5-(4-Ethoxy-phenyl)-4H-[1,2,4]triazol-3-ylsulfanyl]-N-(5-fluoro-2-methyl-phenyl)-acetamide] | –
85% | 31.7 µM | 91 µM | Cc1cc(C)cc(NC(=O)CSc2nnc(-c3ccc(O)cc3)[nH]2)c1 [ACT-CK-146, N-(3,5-Dimethyl-phenyl)-2-[5-(4-hydroxy-phenyl)-4H-[1,2,4]triazol-3-ylsulfanyl]-acetamide] | IC50 (Calu-6): 54 µM; IC50 (U937): 34.1 µM
– | 6.16 µM | 15.7 µM | CCOc1ccc(-c2nnc(SCC(=O)Nc3cc(OC)ccc3OC)[nH]2)cc1 [ACT-CK-093, N-(2,5-Dimethoxy-phenyl)-2-[5-(4-ethoxy-phenyl)-4H-[1,2,4]triazol-3-ylsulfanyl]-acetamide] | –
– | 11.4 µM | 76.2 µM | COc1ccc(-c2nnc(SCC(=O)Nc3cc(F)ccc3C)[nH]2)cc1 [ACT-CK-066, N-(5-Fluoro-2-methyl-phenyl)-2-[5-(4-methoxy-phenyl)-4H-[1,2,4]triazol-3-ylsulfanyl]-acetamide] | –
– | 39 µM | 88 µM | CCOc1cccc(-c2nnc(SCC(=O)Nc3cc(C)cc(C)c3)[nH]2)c1 [ACT-CK-141, N-(3,5-Dimethyl-phenyl)-2-[5-(3-ethoxy-phenyl)-4H-[1,2,4]triazol-3-ylsulfanyl]-acetamide] | IC50 (Calu-6): 43 µM; IC50 (U937): 49 µM
99% | 0.8 µM | 2.6 µM | CCOc1ccc(-c2nnc(SCC(=O)Nc3cc(C)cc(C)c3)[nH]2)cc1F [ACT-CK-154, N-(3,5-Dimethyl-phenyl)-2-[5-(4-ethoxy-3-fluoro-phenyl)-4H-[1,2,4]triazol-3-ylsulfanyl]acetamide] | IC50 (NCI-H82): 0.16 µM; IC50 (Calu-6): 0.03 µM; IC50 (U937): 0.02 µM; Cmax [2]: 3639 ng/mL; T1/2b [2]: 9 min; Vd [2]: 1.66 L/kg
– | 41 µM | 79 µM | COc1cccc(-c2nnc(SCC(=O)Nc3cc(C)cc(C)c3)[nH]2)c1 [ACT-CK-140, N-(3,5-Dimethyl-phenyl)-2-[5-(3-methoxy-phenyl)-4H-[1,2,4]triazol-3-ylsulfanyl]-acetamide] | IC50 (Calu-6): 41.6 µM; IC50 (U937): 20.4 µM
